In US20260060947A1 (INSTITUT PASTEUR DE MONTEVIDEO, priority 2019, published 2026):
Entries after “also recorded” stand apart in the source; their conditions may differ.

Legend:
IL-1β = IL-1β in peritoneum and plasma of LPS-injected mice (ELISA); type: in vivo; conditions: 50 mg/kg IP 1 h before LPS 10 mg/kg, measured 3 h later, compared to vehicle and BA
Procedure: BANA (50 mg/kg), BA (50 mg/kg) or vehicle, were intraperitoneally (IP) injected 1 h before LPS intraperitoneal administration (10 mg/kg). 3 h later, IL-1β levels were measured in the peritoneum and plasma by ELISA.
In turn, BANA was able to reduce IL-1β concentration in plasma and peritoneum of mice intraperitoneally injected with LPS respect to controls (FIGS. 8A-1 and 8A-2). BANA (50 mg/kg), BA (50 mg/kg) or vehicle, were intraperitoneally (IP) injected 1 h before LPS intraperitoneal administration (10 mg/kg). 3 h later, IL-1β levels were measured in the peritoneum and plasma by ELISA. […] All data are expressed as mean±SEM; data were analyzed by Ordinary one-way ANOVA followed by Tukey's multiple comparisons test, ***p=0.0002 ****p<0,0001. n=3 animals per condition.

NLRP3 inflammasome = experiment: Inflammasome activation in THP-1 cells (LPS and ATP), IL-1β ELISA; type: cell-based, Human; conditions: 30 μM, in first or second signal (LPS and ATP), compared with vehicle
Procedure: The effect of BANA or BA over NF-κB-dependent gene expression was studied by qPCR using THP-1 cells. THP-1 cells were differentiated into macrophages and treated with BANA (30 μM) or BA (30 μM) for 2 hs, followed by stimulation with LPS (100 ng/mL, for 3-4 h).
For inflammasome activation, THP-1 cells were treated with LPS (as above) followed by exposure to ATP (5 mM, 45 min). IL-1β in the supernatant was then measured by ELISA (B&D OptEIA TM, San Diego, CA, USA).

[1] = LC50 in cell culture of HT-29; type: cell-based; conditions: human, HT-29 cells; HT-29 cell culture
NF-κB-p65 [2] = experiment: Nuclear NF-κB-p65 in perineuronal microglia of the spinal cord; type: in vivo, rat; conditions: post-paralysis treatment for 15 days, 100 mg/kg/day
Procedure: FIG. 9A: Scheme of the experimental design. SOD1^G93A female rats were treated with 100 mg/kg/day of BANA or vehicle immediately after the first signs of paralysis onset of one hindlimb and continue for 15 days. Immunohistological analysis of the lumbar spinal cord of non-transgenic and vehicle- and BANA-treated SOD1^G93A symptomatic rats were performed.
FIG. 9C: Confocal images show NF-κB-p65 (green) and DAPI (red) expression in the ventral horn of the spinal cord of non-transgenic and symptomatic SOD1^G93A rats, treated with vehicle or BANA, in the surroundings of motor neurons (white dotted lines). Nuclei stained in yellow denote nuclear NF-κB-p65 and DAPI colocalization (white arrows). […] Data are expressed as mean±SEM; data were analyzed by the Kruskal-Wallis test followed by Dunn's multiple comparisons test, **p=0.0018, ***p=0.0003. n=4 animals per condition. Scale bar=20 μm.
At least 4 rats were analyzed for each immunohistochemistry experiment. Three different conditions were studied as follows: 1) non-transgenic (NonTg) rats of 160-180 days; 2) transgenic SOD1^G93A rats of 195-210 days treated with vehicle (paralysis, 15 d-vehicle) and 3) transgenic SOD1^G93A rats of 195-210 days treated with 50 or 100 mg/kg/day of BANA during 15 days. After treatment animals were deeply anesthetized and transcardial perfusion was performed with paraformaldehyde 4% (v/v) in PBS pH=7.4. […]

NF-κB-p65 [3] = experiment: LPS-induced NF-κB-p65 nuclear translocation in BV2 cells (immunocytochemistry); type: cell-based, murine; conditions: BANA 10, 20, 30 μM, BA 30 μM or DMF for 3 hrs before LPS 100 ng/ml
Procedure: The effect of BANA on nuclear translocation of NF-κB was studied by immunocytochemistry using murine microglia cell line BV2.
Cells were then treated with BANA (10, 20 and 30 μM) or B.A (30 μM) for 3 hrs. After treatment, cells were stimulated with LPS (100 ng/ml) for 30 minutes. Then, cells were washed and fixed with PFA 4% for 20 minutes at 4° C. and washed with PBS. Immunocytochemistry was performed as follows: cells were permeabilized using 0.5% Triton in PBS for 15 minutes, and then blocked using 5% of BSA for 1 h at room temperature. Rabbit anti-NF-κB-p65 (ab16502, 1/200) and mouse anti-CD11b (BD550219, 1/100) were incubated overnight at 4° C. After that, primary antibodies were removed, washed with PBS 3 times for 10 minutes, and Alexa-fluor-conjugated goat anti-rabbit or goat anti-mouse antibodies (1:1000) were incubated for 2 h at room temperature. After secondary antibodies were removed, cells were covered in glycerol mounting medium with 1/2000 DAPI staining. Cells were analyzed by confocal microscopy using a confocal ZEISS LSM 800. NF-κB-p65+ nuclei were counted and ratio of DAPI to NF-κB-p65 labeling was compared among groups. Data were analyzed using analyzing tools of ImageJ and GraphPad Prism 7 software.

NF-κB-p65 [4] = experiment: LPS-induced NF-κB-p65 nuclear translocation in SOD1^G93A primary microglia; type: cell-based, rat; conditions: BANA 10-30 μM before LPS
Procedure: FIG. 8D: Confocal images show CD11b-positive SOD1^G93A primary microglia (grey) treated with BANA, BA or vehicle, before LPS stimulation. […] Nuclear NF-κB-p65 colocalizing with DAPI nuclear staining is denoted in yellow.
Nuclear NF-κB-p65 colocalizing with DAPI nuclear staining is denoted in yellow. […] Scale bar=20 μm. […] 2 replicates of 3 independent experiments.
The effects of BANA on LPS- or TNFα-induced NF-κB activation were also assayed in cell cultures of BV2 microglial cell line and primary adult microglia isolated from symptomatic SOD1^G93A rats, and HT-29 NF-κB reporter cell line, respectively.

[5] = Electrophilic reactivity: reaction between BANA and β-mercaptoethanol followed by UV-Visible spectra; type: physicochemical; conditions: BANA 30 μM, β-ME 300 μM, phosphate buffer 20 mM pH=7.4, scans each min up to 15 min
Procedure: Most electrophilic nitroalkene compounds exert their pharmacological activity via a Michael addition reaction with nucleophiles. To study the electrophilic properties of BANA, the reaction between -mercaptoethanol (BME) and BANA was studied spectrophotometrically.
The electrophilic reactivity of BANA compound was determined by analyzing the UV-Visible spectra of the reaction between BANA and β-Mercaptoethanol (β-ME). BANA (30 μM) was incubated with β-ME (300 μM) in Phosphate buffer (20 mM) pH=7.4, and scans were taken each min up to 15 min.

O=C(O)c1ccc(/C=C/[N+](=O)[O-])cc1 [BANA, (E)-4-(2-nitrovinyl) benzoic acid]
IL-1β concentration in plasma (IL-1β): significantly reduces
IL-1β concentration in the peritoneum (IL-1β): significantly reduces
release of IL-1β (NLRP3 inflammasome): almost completely prevented
CC50 [1]: 80 µM
perineuronal microglia bearing NF-κB-p65-positive nuclei (NF-κB-p65 [2]): significant reduction
LPS-induced NF-κB-p65 nuclear translocation (NF-κB-p65 [3]): potently prevented; also recorded: inhibits
LPS-induced NF-κB-p65 nuclear translocation (NF-κB-p65 [4]): inhibits; also recorded: potently prevented
reaction with β-mercaptoethanol (UV-Visible absorbance) [5]: react with 3-ME, resulting in a decreased in absorbance
